Results taken from PubChem BioAssay AID248 (DTP/NCI, 2004).
Inconclusive results and toxic doses are left out.

Test system: L1210 leukemia ip in BDF1 mice, survival T/C
Assay: NCI In Vivo Anticancer Drug Screen. Data for tumor model L1210 Leukemia (intraperitoneal) in B6D2F1 (BDF1) mice
Settings: endpoint: mean survival time, higher = longer survival
How it was run: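 Transplantable tumor model; survival measured in treated vs vehicle control mice. Value = treated/control.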

[1] = dose: 50.0 mg/kg/injection, schedule: Q01DX009 (ip), vehicle: Klucel (hydroxypropylcellulose) (HPC)
[2] = dose: 100.0 mg/kg/injection, schedule: Q01DX009 (ip), vehicle: Klucel (hydroxypropylcellulose) (HPC)
[3] = dose: 200.0 mg/kg/injection, schedule: Q01DX009 (ip), vehicle: Klucel (hydroxypropylcellulose) (HPC)
[4] = dose: 100.0 mg/kg/injection, schedule: Q04DX002 (ip), vehicle: Klucel (hydroxypropylcellulose) (HPC)
[5] = dose: 200.0 mg/kg/injection, schedule: Q04DX002 (ip), vehicle: Klucel (hydroxypropylcellulose) (HPC)
[6] = dose: 400.0 mg/kg/injection, schedule: Q04DX002 (ip), vehicle: Klucel (hydroxypropylcellulose) (HPC)
[7] = dose: 100.0 mg/kg/injection, schedule: Q01DX001 (ip), vehicle: Klucel (hydroxypropylcellulose) (HPC)
[8] = dose: 200.0 mg/kg/injection, schedule: Q01DX001 (ip), vehicle: Klucel (hydroxypropylcellulose) (HPC)
[9] = dose: 400.0 mg/kg/injection, schedule: Q01DX001 (ip), vehicle: Klucel (hydroxypropylcellulose) (HPC)
[10] = dose: 100.0 mg/kg/injection, schedule: Q01DX009 (ip), vehicle: saline with Tween-80
[11] = dose: 200.0 mg/kg/injection, schedule: Q01DX009 (ip), vehicle: saline with Tween-80
[12] = dose: 400.0 mg/kg/injection, schedule: Q01DX009 (ip), vehicle: saline with Tween-80
[13] = dose: 100.0 mg/kg/injection, schedule: Q04DX003 (ip), vehicle: saline

`CC(=O)OCC1OC(N2C(=O)/C(=C/c3ccc4c(c3)OCO4)SC2=S)C(OC(C)=O)C(OC(C)=O)C1OC(C)=O` (stereo unspecified) was tested, and the T/C (dose: 12.5 mg/kg/injection, schedule: Q01DX005 (ip), vehicle: other) was 102 % of control, the T/C (dose: 25.0 mg/kg/injection, schedule: Q01DX005 (ip), vehicle: other) was 100 % of control and the T/C (dose: 50.0 mg/kg/injection, schedule: Q01DX005 (ip), vehicle: other) was 96 % of control. For the same molecule, the T/C (dose: 100.0 mg/kg/injection, schedule: Q01DX005 (ip), vehicle: other) was 94 % of control and the T/C (dose: 200.0 mg/kg/injection, schedule: Q01DX005 (ip), vehicle: other) was 94 % of control.
`CC1([N+](=O)[O-])COP(=O)(NCc2ccncc2)OC1` (stereo unspecified) was tested, and the T/C (dose: 50.0 mg/kg/injection, schedule: Q01DX001 (ip), vehicle: carboxymethylcellulose (CMC)) was 107 % of control, the T/C (dose: 100.0 mg/kg/injection, schedule: Q01DX001 (ip), vehicle: carboxymethylcellulose (CMC)) was 104 % of control and the T/C (dose: 200.0 mg/kg/injection, schedule: Q01DX001 (ip), vehicle: carboxymethylcellulose (CMC)) was 104 % of control. The T/C (dose: 400.0 mg/kg/injection, schedule: Q01DX001 (ip), vehicle: carboxymethylcellulose (CMC)) was 109 % of control.
`Cc1cccc(C)c1-n1nnnc1N` was tested, and the T/C [1] was 105 % of control, the T/C [2] was 119 % of control and the T/C [3] was 101 % of control.
For `N#Cc1c(N)nc2ccccc2[n+]1[O-]`, the T/C [1] was 94 % of control, the T/C [2] was 97 % of control and the T/C [3] was 100 % of control.
With `O=[N+]([O-])c1ccc(Oc2c(Cl)c(Cl)c(Cl)c(Cl)c2Cl)c([N+](=O)[O-])c1` the T/C (dose: 222.0 mg/kg/injection, schedule: Q01DX Z (ip), vehicle: methylcellulose (MC)) was 95 % of control, the T/C (dose: 333.0 mg/kg/injection, schedule: Q01DX Z (ip), vehicle: methylcellulose (MC)) was 94 % of control and the T/C (dose: 500.0 mg/kg/injection, schedule: Q01DX Z (ip), vehicle: methylcellulose (MC)) was 93 % of control.
In the case of `Cn1ncc2c(N)nc(-c3ccccc3)nc21`, the T/C (dose: 100.0 mg/kg/injection, schedule: Q04DX003 (ip), vehicle: other) is reported as 97 % of control.
For `c1ccc(P(CCP(CCP(c2ccccc2)c2ccccc2)CCP(c2ccccc2)c2ccccc2)c2ccccc2)cc1`, the T/C [2] was 89 % of control, the T/C [3] was 89 % of control and the T/C (dose: 400.0 mg/kg/injection, schedule: Q01DX009 (ip), vehicle: Klucel (hydroxypropylcellulose) (HPC)) was 88 % of control.
For `C1CC2CCC[N]3C2C(C1)[O][Pb]31[O]C2CCCC3CCC[N]1C32` (stereo unspecified), the T/C (dose: 30.0 mg/kg/injection, schedule: Q01DX015 (ip), vehicle: carboxymethylcellulose (CMC)) was 91 % of control, the T/C (dose: 60.0 mg/kg/injection, schedule: Q01DX015 (ip), vehicle: carboxymethylcellulose (CMC)) was 90 % of control and the T/C [2] was 97 % of control. For the same molecule, the T/C (dose: 100.0 mg/kg/injection, schedule: Q04DX003 (ip), vehicle: Klucel (hydroxypropylcellulose) (HPC)) was 95 % of control, the T/C [3] was 92 % of control and the T/C (dose: 200.0 mg/kg/injection, schedule: Q04DX003 (ip), vehicle: Klucel (hydroxypropylcellulose) (HPC)) was 94 % of control. The T/C (dose: 400.0 mg/kg/injection, schedule: Q04DX003 (ip), vehicle: Klucel (hydroxypropylcellulose) (HPC)) was 98 % of control.
In the case of `CCCCCCCCCCCC(=O)N/N=C(\c1ccccc1)c1ccc(Cl)cc1`, the T/C [4] is reported as 103 % of control, the T/C [5] is reported as 103 % of control and the T/C [6] is reported as 122 % of control.
With `CC1(C)C2CCC1(C)C(C(=O)C(F)(F)F)C2=O.CC1(C)C2CCC1(C)C(C(=O)C(F)(F)F)C2=O.CC1(C)C2CCC1(C)C(C(=O)C(F)(F)F)C2=O.[Eu]` (stereo unspecified) the T/C (dose: 50.0 mg/kg/injection, schedule: Q04DX002 (ip), vehicle: saline with Tween-80) was 105 % of control, the T/C (dose: 100.0 mg/kg/injection, schedule: Q04DX002 (ip), vehicle: saline with Tween-80) was 94 % of control and the T/C (dose: 200.0 mg/kg/injection, schedule: Q04DX002 (ip), vehicle: saline with Tween-80) was 102 % of control.
For `CN(C)CCCC(=O)O`, the T/C (dose: 100.0 mg/kg/injection, schedule: Q01DX009 (ip), vehicle: saline) was 89 % of control, the T/C (dose: 100.0 mg/kg/injection, schedule: Q04DX003 (ip), vehicle: saline with Tween-80) was 106 % of control and the T/C (dose: 200.0 mg/kg/injection, schedule: Q01DX009 (ip), vehicle: saline) was 97 % of control. The T/C (dose: 200.0 mg/kg/injection, schedule: Q04DX003 (ip), vehicle: saline with Tween-80) was 95 % of control, the T/C (dose: 400.0 mg/kg/injection, schedule: Q01DX009 (ip), vehicle: saline) was 95 % of control and the T/C (dose: 400.0 mg/kg/injection, schedule: Q04DX003 (ip), vehicle: saline with Tween-80) was 88 % of control.
With `C/C=C1/CN2C3CC1C1(C(=O)OC)C2CC2(c4ccccc4N(C)C32)C1O` (stereo unspecified) the T/C [1] was 94 % of control, the T/C [7] was 105 % of control and the T/C [2] was 98 % of control. For the same molecule, the T/C [8] was 97 % of control, the T/C [3] was 96 % of control and the T/C [9] was 93 % of control.
In the case of `CC(=O)N(C)c1cc2c3c(c1)CCCN3CCC2`, the T/C [1] is reported as 104 % of control and the T/C [2] is reported as 98 % of control.
In the case of `O=c1c(C(Cl)Cl)nc2ccccc2n1O`, the T/C [7] is reported as 95 % of control, the T/C [8] is reported as 98 % of control and the T/C [9] is reported as 101 % of control.
For `FC(F)(F)c1cccc(NC(=S)N/N=C/c2ccccc2)c1`, the T/C [10] was 92 % of control, the T/C [11] was 97 % of control and the T/C [12] was 94 % of control.
`C1=C2CCCCC2OC1` (stereo unspecified) was tested, and the T/C (dose: 75.0 mg/kg/injection, schedule: Q01DX001 (ip), vehicle: carboxymethylcellulose (CMC)) was 97 % of control and the T/C (dose: 150.0 mg/kg/injection, schedule: Q01DX001 (ip), vehicle: carboxymethylcellulose (CMC)) was 98 % of control.
For `CC1(C)CC(OP(OC2CC(C)(C)N(O)C(C)(C)C2)OC2CC(C)(C)N(O)C(C)(C)C2)CC(C)(C)N1O`, the T/C (dose: 100.0 mg/kg/injection, schedule: Q01DX001 (ip), vehicle: water) was 100 % of control, the T/C (dose: 200.0 mg/kg/injection, schedule: Q01DX001 (ip), vehicle: water) was 94 % of control and the T/C (dose: 400.0 mg/kg/injection, schedule: Q01DX001 (ip), vehicle: water) was 94 % of control.
For `CCOC1(OCC)CS(=O)(=O)C1`, the T/C (dose: 25.0 mg/kg/injection, schedule: Q01DX009 (ip), vehicle: saline sonified) was 100 % of control, the T/C (dose: 50.0 mg/kg/injection, schedule: Q01DX009 (ip), vehicle: saline sonified) was 95 % of control and the T/C (dose: 100.0 mg/kg/injection, schedule: Q01DX009 (ip), vehicle: saline sonified) was 106 % of control. The T/C [13] was 109 % of control, the T/C (dose: 200.0 mg/kg/injection, schedule: Q04DX003 (ip), vehicle: saline) was 117 % of control and the T/C (dose: 400.0 mg/kg/injection, schedule: Q04DX003 (ip), vehicle: saline) was 112 % of control.
`O=P(N1CCCCCC1)(N1CC1)N1CC1` was tested, and the T/C (dose: 1.7 mg/kg/injection, schedule: Q01DX Z (ip), vehicle: saline) was 107 % of control, the T/C (dose: 2.6 mg/kg/injection, schedule: Q01DX Z (ip), vehicle: saline) was 114 % of control and the T/C (dose: 4.0 mg/kg/injection, schedule: Q01DX Z (ip), vehicle: saline) was 120 % of control. For the same molecule, the T/C (dose: 9.0 mg/kg/injection, schedule: Q01DX Z (ip), vehicle: saline) was 152 % of control.
`[Cl][Pt+2][Cl].[NH-]CCN1CC1` was tested, and the T/C (dose: 50.0 mg/kg/injection, schedule: Q04DX003 (ip), vehicle: saline) was 122 % of control and the T/C [13] was 122 % of control.
In the case of `COc1ccc([N+](=O)[O-])cc1NC(=O)N(Cc1ccccc1)c1ccccc1`, the T/C [1] is reported as 96 % of control, the T/C [2] is reported as 93 % of control and the T/C [3] is reported as 96 % of control.
`Cc1ccc(C(=O)O)cc1-n1c(-c2ccc(Cl)cc2)nnc1-c1ccc(Br)cc1` was tested, and the T/C [1] was 92 % of control, the T/C [7] was 97 % of control and the T/C [2] was 93 % of control. For the same molecule, the T/C [8] was 96 % of control and the T/C [3] was 93 % of control.
`O=C1Nc2ccccc2C2=C3CCCCC3=NNC12` (stereo unspecified) was tested, and the T/C [4] was 101 % of control, the T/C [5] was 97 % of control and the T/C [6] was 108 % of control.
For `CC1C2C=CC1C(c1c3ccc(=O)cc-3oc3cc(O)ccc13)C2C(=O)O` (stereo unspecified), the T/C [10] was 98 % of control, the T/C [11] was 104 % of control and the T/C [12] was 104 % of control.
